Entries after “also recorded” stand apart in the source; their conditions may differ. Where two headings read alike, the source gives them in different places.
Details: for Major Organ Toxicity / Liver enzymes ALKP / Liver enzymes ALT / Liver enzymes AST / Liver enzymes LDH / Ulceration (Grade) Colon / Ulceration (Grade) Small Intestine / Ulceration (Grade) Stomach: 6 weeks, male C57 mice; for Liver enzymes ALKP / Liver enzymes ALT / Liver enzymes AST / Liver enzymes LDH: Mean ± SEM
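Further: gross examination of all organs at necropsy, with liver enzyme profile and GI ulceration assessed in collected tissues and blood.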

Description: Body weights and symptoms of toxicity were recorded twice weekly for 6 weeks. […] All organs were examined grossly for any abnormalities upon necropsy. Livers, kidney, stomach, intestinal tract, and blood were obtained from the animals and analyzed for Liver enzyme profile, GI ulceration, and levels of test agents.
All animals found dead will be necropsied to confirm that the most likely cause of death was due to intestinal ulcerations.

Structure (SMILES): CCCCCCC(Sc1nc(Cl)cc(Nc2cccc(C)c2C)n1)C(=O)O (stereo not shown) [YS-121, reference compound]
- Major Organ Toxicity (25 ppm in diet): None
- Liver enzymes ALKP (25 ppm in diet): 183 ± 24 units/L
- Liver enzymes ALT (25 ppm in diet): 81 ± 11 units/L
- Liver enzymes AST (25 ppm in diet): 77 ± 8.6 units/L
- Liver enzymes LDH (25 ppm in diet): 388 ± 29 units/L
- Major Organ Toxicity (50 ppm in diet): None
- Liver enzymes ALKP (50 ppm in diet): 198 ± 33 units/L
- Liver enzymes ALT (50 ppm in diet): 96 ± 14 units/L
- Liver enzymes AST (50 ppm in diet): 90 ± 7.8 units/L
- Liver enzymes LDH (50 ppm in diet): 451 ± 38 units/L
- toxicity (75 ppm and above dose levels in diet, mice): significant toxicity
- Major Organ Toxicity (75 ppm in diet): Liver
- Liver enzymes ALKP (75 ppm in diet): 358 ± 47 units/L
- Liver enzymes ALT (75 ppm in diet): 147 ± 17 units/L
- Liver enzymes AST (75 ppm in diet): 118 ± 18 units/L
- Liver enzymes LDH (75 ppm in diet): 540 ± 51 units/L
- Major Organ Toxicity (100 ppm in diet): Liver*
- Ulceration (Grade) Colon (100 ppm in diet): Grade: 0, 1
- Ulceration (Grade) Small Intestine (100 ppm in diet): Grade: 1
- Ulceration (Grade) Stomach (100 ppm in diet): Grade: 2-3
- Liver enzymes ALKP (100 ppm in diet): 477 ± 51 units/L
- Liver enzymes ALT (100 ppm in diet): 194 ± 23 units/L
- Liver enzymes AST (100 ppm in diet): 169 ± 29 units/L
- Liver enzymes LDH (100 ppm in diet): 883 ± 68 units/L
- Major Organ Toxicity (200 ppm in diet): Liver**; also recorded: Stomach
- Ulceration (Grade) Colon (200 ppm in diet): Grade: 2
- Ulceration (Grade) Small Intestine (200 ppm in diet): Grade: 4
- Ulceration (Grade) Stomach (200 ppm in diet): Grade: 5

— US10206904B2, “Licofelone derivatives and methods of use” (The Board of Regents of the University of Oklahoma, priority 2015, dated 2019)
